The subject of assay [1] is Eschericia coli (E. coli) strain ATCC25922. The assay can be described thus: standard microdilution assay to determine minimum inhibitory concentrations (MICs), E. coli. In kind it is cell-based. As to conditions: Escherichia coli. The procedure:
(§1) The in vitro activity of the compounds of the present disclosure can be determined. Antimicrobial testing is typically performed to determine the minimum inhibitory concentration (MIC). Minimum inhibitory concentrations (MICs) are determined by the microdilution method in a final volume of 100 μl according to protocols outlined by The Clinical and Laboratory Standards Institute (CLSI). Performance standards for reference strains are assessed within the same experimental design to maintain quality control. See, for example, Clinical Laboratory Standards Institute: Methods for dilution antimicrobial susceptibility tests for bacteria that grow aerobically M7-A8. Approved Standard-Eighth Edition. Wayne, PA: CLSI; December 2008: and Clinical Laboratory Standards Institute: Performance Standards for Antimicrobial Susceptibility Testing M100-S20; Approved Standard-Twentieth Edition. Wayne, PA: CLSI; June 2010. The compounds of the present disclosure were tested for antimicrobial activity. The Compounds 1-122 were run against Eschericia coli (E. coli) strain ATCC25922 and against Staphylococcus aureus (S. aureus) 11540 strain using a standard microdilution assay to determine minimum inhibitory concentrations (MICs). […] It will be recognized by one skilled in the art that the compounds can be assessed against other bacterial organisms and that the presentation of data for activity against Eschericia coli and Staphylococcus aureus are illustrative and in no way is intended to limit the scope of the present disclosure. The compounds of the present disclosure can be assayed against a range of other microorganisms depending upon the performance activity desired to be gathered. Furthermore, the “+” and “−” representation and the selection of a cutoff value of 16 micrograms/mL is also illustrative and in no way is intended to limit the scope of the present disclosure.
Background: Broth dilution looks for growth in wells or tubes with falling amounts of substance.

The test system of assay [2] is Staphylococcus aureus (S. aureus) 11540 strain. Nature of the assay: standard microdilution assay to determine minimum inhibitory concentrations (MICs), S. aureus. Format: cell-based. On the procedure:
as §1

We go through 30 compounds from patent US12234238B2, “Antimicrobial compounds and methods of making and using the same” (BIOVERSYS AG, priority 2017, dated 2025).

For `CCc1cc(CCC[C@H](C)N)cc(-c2cc3cn(-c4ccc([C@@H]5CCC[C@@H](CCSC(=N)N)N5)cc4)c(=O)nc3[nH]2)c1` [Compound 87], the minimal inhibitory concentration (MIC) in assay [1] and in assay [2] was at most 16 µg/mL throughout.
Take `N=C(N)SCC[C@@H]1CCC[C@@H](c2ccc(-n3cc4cc(C5C[C@@H](N)CN5)[nH]c4nc3=O)cc2)N1` (stereo partly drawn) [Compound 88]: the minimal inhibitory concentration (MIC) in assay [1] and in assay [2] was at most 16 µg/mL each time.
Turning to `C[C@H](N)CCCc1cc(-c2cc3cn(-c4ccc([C@@H]5CCC[C@@H](CCSC(=N)N)N5)cc4)c(=O)nc3[nH]2)cc(C(C)(F)F)c1` [Compound 89], the MIC in assay [1] and in assay [2] was at most 16 µg/mL each time.
Turning to `CC(C)CN1[C@H](CCSC(=N)N)CCC[C@H]1c1ccc(-n2cc3cc(-c4cc(CCC[C@H](C)N)cc(Cl)c4F)[nH]c3nc2=O)cc1` [Compound 90], the MIC in assay [1] and in assay [2] was at most 16 µg/mL throughout.
As for `CSCCN1[C@H](CCSC(=N)N)CCC[C@H]1c1ccc(-n2cc3cc(-c4cc(CCC[C@H](C)N)cc(Cl)c4F)[nH]c3nc2=O)cc1` [Compound 91], the MIC in assay [1] and in assay [2] was at most 16 µg/mL throughout.
In the case of `CC(=O)c1cc(CCC[C@H](C)N)cc(-c2cc3cn(-c4ccc([C@@H]5CCC[C@@H](CCSC(=N)N)N5)cc4)c(=O)nc3[nH]2)c1` [Compound 92], the minimal inhibitory concentration (MIC) in assay [1] and in assay [2] was at most 16 µg/mL each time.
For the compound `C[C@H](N)CCCc1cc(-c2cc3cn(-c4ccc([C@@H]5CCC[C@@H](CCSC(=N)N)N5)cc4)c(=O)nc3[nH]2)cc2c1CCCC2` [Compound 93], the MIC in assay [1] and in assay [2] was at most 16 µg/mL in each case.
On to `C=CCCN1[C@H](CCSC(=N)N)CCC[C@H]1c1ccc(-n2cc3cc(-c4cc(CCC[C@H](C)N)cc(Cl)c4F)[nH]c3nc2=O)cc1` [Compound 94], for which the MIC in assay [1] and in assay [2] was at most 16 µg/mL each time.
For the compound `CC(Br)CCN1[C@H](CCSC(=N)N)CCC[C@H]1c1ccc(-n2cc3cc(-c4cc(CCC[C@H](C)N)cc(Cl)c4F)[nH]c3nc2=O)cc1` (stereo partly drawn) [Compound 95], the MIC in assay [1] and in assay [2] was at most 16 µg/mL throughout.
Consider `COC(=O)CN1[C@H](CCSC(=N)N)CCC[C@H]1c1ccc(-n2cc3cc(-c4cc(CCC[C@H](C)N)cc(Cl)c4F)[nH]c3nc2=O)cc1` [Compound 96], for which the MIC in assay [1] and in assay [2] was at most 16 µg/mL each time.
As to `COCCN1[C@H](CCSC(=N)N)CCC[C@H]1c1ccc(-n2cc3cc(-c4cc(CCC[C@H](C)N)cc(Cl)c4F)[nH]c3nc2=O)cc1` [Compound 97], the MIC (commonly the lowest concentration found to suppress growth) is above 16 µg/mL in assay [1] and at most 16 µg/mL in assay [2].
On to `C[C@H](N)CCCc1cc(Cl)c(F)c(-c2cc3cn(-c4ccc([C@@H]5CCC[C@@H](CCSC(=N)N)N5CCF)cc4)c(=O)nc3[nH]2)c1` [Compound 98], for which the MIC in assay [1] and in assay [2] was at most 16 µg/mL each time.
Take `C[C@H](N)CCCc1cc(-c2cc3cn(-c4ccc([C@@H]5CCC[C@@H](CCSC(=N)N)N5)cc4)c(=O)nc3[nH]2)cc(C2CC2)c1` [Compound 99]: the MIC in assay [1] and in assay [2] was at most 16 µg/mL each time.
For the compound `C[C@H](N)CCCc1cc(-c2cc3cn(-c4ccc([C@@H]5CCC[C@@H](CCSC(=N)N)N5)cc4)c(=O)nc3[nH]2)cc(C2CCCC2)c1` [Compound 100], the MIC in assay [1] and in assay [2] was at most 16 µg/mL in each case.
With `C[C@@H](CO)CN1[C@H](CCSC(=N)N)CCC[C@H]1c1ccc(-n2cc3cc(-c4cc(CCC[C@H](C)N)cc(Cl)c4F)[nH]c3nc2=O)cc1` [Compound 101], the MIC in assay [1] and in assay [2] was at most 16 µg/mL throughout.
With `C[C@H](N)CCCc1cc(Cl)c(F)c(-c2cc3cn(-c4ccc([C@@H]5CCC[C@@H](CCSC(=N)N)N5CCC5CCOCC5)cc4)c(=O)nc3[nH]2)c1` [Compound 102], the MIC in assay [1] and in assay [2] was at most 16 µg/mL each time.
With `C[C@H](N)CCCc1cc(Cl)c(F)c(-c2cc3cn(-c4ccc([C@@H]5CCC[C@@H](CCSC(=N)N)N5CCC5CC5)cc4)c(=O)nc3[nH]2)c1` [Compound 103], the MIC in assay [1] and in assay [2] was at most 16 µg/mL each time.
With `CCc1c(F)c(CCC[C@H](C)N)cc(-c2cc3cn(-c4ccc([C@@H]5CCC[C@@H](CCSC(=N)N)N5)cc4)c(=O)nc3[nH]2)c1F` [Compound 104], the MIC in assay [1] and in assay [2] was at most 16 µg/mL each time.
On to `C[C@H](CO)CN1[C@H](CCSC(=N)N)CCC[C@H]1c1ccc(-n2cc3cc(-c4cc(CCC[C@H](C)N)cc(Cl)c4F)[nH]c3nc2=O)cc1` [Compound 105], for which the MIC in assay [1] and in assay [2] was at most 16 µg/mL each time.
Take `C[C@H](N)CCCc1cc(Cl)c(F)c(-c2cc3cn(-c4ccc([C@@H]5CCC(O)[C@@H](CCSC(=N)N)N5C)cc4)c(=O)nc3[nH]2)c1` (stereo partly drawn) [Compound 106]: the MIC in assay [1] and in assay [2] was at most 16 µg/mL in each case.
Consider `C[C@H](N)CCCc1cc(Cl)c(F)c(-c2cc3cn(-c4ccc([C@H]5C[C@H](CCSC(=N)N)CCN5C)cc4)c(=O)nc3[nH]2)c1` [Compound 111], for which the MIC in assay [1] and in assay [2] was at most 16 µg/mL in each case.
Take `C[C@H](N)CCCc1cc(Cl)c(F)c(-c2cc3cn(-c4ccc([C@H]5C[C@H](CCSC(=N)N)CN5)cc4)c(=O)nc3[nH]2)c1` [Compound 114]: the MIC in assay [1] and in assay [2] was at most 16 µg/mL in each case.
For `C[C@H](N)CCCc1cc(Cl)c(F)c(-c2cc3cn(-c4ccc([C@H]5C[C@H](CCSC(=N)N)C(=O)N5C)cc4)c(=O)nc3[nH]2)c1` [Compound 115], the figures for the minimum inhibitory concentration (MIC) in assay [1] and in assay [2] were above 16 µg/mL and at most 16 µg/mL, respectively.
As for `C[C@H](N)CCCc1cc(Cl)c(F)c(-c2cc3cn(-c4ccc([C@@H]5C[C@@H](CCSC(=N)N)CN5)cc4)c(=O)nc3[nH]2)c1` [Compound 116], the MIC in assay [1] and in assay [2] was at most 16 µg/mL throughout.
In the case of `C[C@H](N)CCCc1cc(Cl)c(F)c(-c2cc3cn(-c4ccc([C@H]5C[C@H](CCSC(=N)N)CN5CCCF)cc4)c(=O)nc3[nH]2)c1` [Compound 117], the MIC in assay [1] and in assay [2] was at most 16 µg/mL in each case.
Regarding `CCSC(=N)NCC[C@@H]1CCC[C@@H](c2ccc(-n3cc4cc(-c5cc(CCC[C@H](C)N)cc(Cl)c5F)[nH]c4nc3=O)cc2)N1` [Compound 118], the MIC in assay [1] and in assay [2] was at most 16 µg/mL in each case.
On to `CC(C)SC(=N)NCC[C@@H]1CCC[C@@H](c2ccc(-n3cc4cc(-c5cc(CCC[C@H](C)N)cc(Cl)c5F)[nH]c4nc3=O)cc2)N1` [Compound 119], for which the MIC in assay [1] and in assay [2] was at most 16 µg/mL each time.
For `CSC(=N)NCC[C@@H]1CCC[C@@H](c2ccc(-n3cc4cc(-c5cc(CCC[C@H](C)N)cc(Cl)c5F)[nH]c4nc3=O)cc2)N1` [Compound 120], the MIC in assay [1] and in assay [2] was at most 16 µg/mL throughout.
Regarding `CSC(=N)NCC[C@@H]1CCC[C@@H](c2ccc(-n3cc4cc(-c5cc(CCC[C@H](C)N)cc(Cl)c5F)[nH]c4nc3=O)cc2F)N1` [Compound 121], the MIC in assay [1] and in assay [2] was at most 16 µg/mL each time.
For `C=CCSC(=N)NCC[C@@H]1CCC[C@@H](c2ccc(-n3cc4cc(-c5cc(CCC[C@H](C)N)cc(Cl)c5F)[nH]c4nc3=O)cc2)N1` [Compound 122], the MIC in assay [1] and in assay [2] was at most 16 µg/mL in each case.
